{"source": "ChEMBL document CHEMBL1201862", "about": "“PubChem BioAssay data set” (2004)", "experiment_in_all_cases": "DTP human tumour cell line panel, 48 h", "key": {"786-0": {"test_system": "786-0"}, "A498": {"test_system": "A498"}, "A549": {"test_system": "A549"}, "ACHN": {"test_system": "ACHN"}, "CAKI-1": {"test_system": "CAKI-1"}, "CCRF-CEM": {"test_system": "CCRF-CEM"}, "COLO 205": {"test_system": "COLO 205"}, "DU-145": {"test_system": "DU-145"}, "EKVX": {"test_system": "EKVX"}, "HCC 2998": {"test_system": "HCC 2998"}, "HCT-116": {"test_system": "HCT-116"}, "HCT-15": {"test_system": "HCT-15"}, "HL-60": {"test_system": "HL-60"}, "HOP-62": {"test_system": "HOP-62"}, "HOP-92": {"test_system": "HOP-92"}, "HT-29": {"test_system": "HT-29"}, "Hs-578T": {"test_system": "Hs-578T"}, "IGROV-1": {"test_system": "IGROV-1"}, "K562": {"test_system": "K562"}, "KM12": {"test_system": "KM12"}, "LOX IMVI": {"test_system": "LOX IMVI"}, "M14": {"test_system": "M14"}, "MCF7": {"test_system": "MCF7"}, "MDA-MB-231": {"test_system": "MDA-MB-231"}, "MDA-MB-435": {"test_system": "MDA-MB-435"}, "MDA-N": {"test_system": "MDA-N"}, "MOLT-4": {"test_system": "MOLT-4"}, "Malme-3M": {"test_system": "Malme-3M"}, "NCI-H226": {"test_system": "NCI-H226"}, "NCI-H23": {"test_system": "NCI-H23"}, "NCI-H460": {"test_system": "NCI-H460"}, "NCI-H522": {"test_system": "NCI-H522"}, "NCI/ADR-RES": {"test_system": "NCI/ADR-RES"}, "OVCAR-3": {"test_system": "OVCAR-3"}, "OVCAR-4": {"test_system": "OVCAR-4"}, "OVCAR-5": {"test_system": "OVCAR-5"}, "PC-3": {"test_system": "PC-3"}, "RPMI-8226": {"test_system": "RPMI-8226"}, "RXF 393": {"test_system": "RXF 393"}, "SF-268": {"test_system": "SF-268"}, "SF-295": {"test_system": "SF-295"}, "SF-539": {"test_system": "SF-539"}, "SK-MEL-28": {"test_system": "SK-MEL-28"}, "SK-MEL-2": {"test_system": "SK-MEL-2"}, "SK-MEL-5": {"test_system": "SK-MEL-5"}, "SK-OV-3": {"test_system": "SK-OV-3"}, "SN12C": {"test_system": "SN12C"}, "SNB-19": {"test_system": "SNB-19"}, "SR": {"test_system": "SR"}, "SW-620": {"test_system": "SW-620"}, "T47D": {"test_system": "T47D"}, "TK-10": {"test_system": "TK-10"}, "U-251": {"test_system": "U-251"}, "UACC-257": {"test_system": "UACC-257"}, "UACC-62": {"test_system": "UACC-62"}}, "note": "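Assay format: 96-well plates, 48-hour exposure. GI50 marks 50% less growth.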 Calls of active or inactive are those of the source. Rule as the data show it: active = GI50 up to about 1.1 µM and inactive = higher."}
{"smiles": "N=C1C=C(N)C(=O)c2[nH]c(=O)ccc21", "values": [{"measurement": "GI50", "setting": "786-0", "value": "1910 nM (inactive)"}, {"measurement": "GI50", "setting": "A498", "value": "2950 nM (inactive)"}, {"measurement": "GI50", "setting": "A549", "value": "2480 nM (inactive)"}, {"measurement": "GI50", "setting": "ACHN", "value": "1730 nM (inactive)"}, {"measurement": "GI50", "setting": "CAKI-1", "value": "5160 nM (inactive)"}, {"measurement": "GI50", "setting": "CCRF-CEM", "value": "2360 nM (inactive)"}, {"measurement": "GI50", "setting": "COLO 205", "value": "1730 nM (inactive)"}, {"measurement": "GI50", "setting": "DU-145", "value": "8130 nM (inactive)"}, {"measurement": "GI50", "setting": "EKVX", "value": "1920 nM (inactive)"}, {"measurement": "GI50", "setting": "HCC 2998", "value": "19300 nM (inactive)"}, {"measurement": "GI50", "setting": "HCT-116", "value": "1100 nM (active)"}, {"measurement": "GI50", "setting": "HCT-15", "value": 2060, "unit": "nM"}, {"measurement": "GI50", "setting": "HL-60", "value": "2630 nM (inactive)"}, {"measurement": "GI50", "setting": "HOP-62", "value": "1920 nM (inactive)"}, {"measurement": "GI50", "setting": "HOP-92", "value": "2110 nM (inactive)"}, {"measurement": "GI50", "setting": "HT-29", "value": "2370 nM (inactive)"}, {"measurement": "GI50", "setting": "Hs-578T", "value": "4420 nM (inactive)"}, {"measurement": "GI50", "setting": "IGROV-1", "value": "1960 nM (inactive)"}, {"measurement": "GI50", "setting": "K562", "value": "1910 nM (inactive)"}, {"measurement": "GI50", "setting": "KM12", "value": "1820 nM (inactive)"}, {"measurement": "GI50", "setting": "LOX IMVI", "value": "2000 nM (inactive)"}, {"measurement": "GI50", "setting": "M14", "value": "14800 nM (inactive)"}, {"measurement": "GI50", "setting": "MCF7", "value": "351 nM (active)"}, {"measurement": "GI50", "setting": "MDA-MB-231", "value": "1910 nM (inactive)"}, {"measurement": "GI50", "setting": "MDA-MB-435", "value": "1090 nM (active)"}, {"measurement": "GI50", "setting": "MDA-N", "value": "1010 nM (active)"}, {"measurement": "GI50", "setting": "MOLT-4", "value": "3500 nM (inactive)"}, {"measurement": "GI50", "setting": "Malme-3M", "value": "2390 nM (inactive)"}, {"measurement": "GI50", "setting": "NCI-H226", "value": "2530 nM (inactive)"}, {"measurement": "GI50", "setting": "NCI-H23", "value": "2230 nM (inactive)"}, {"measurement": "GI50", "setting": "NCI-H460", "value": "2920 nM (inactive)"}, {"measurement": "GI50", "setting": "NCI-H522", "value": "1560 nM (inactive)"}, {"measurement": "GI50", "setting": "NCI/ADR-RES", "value": "2270 nM (inactive)"}, {"measurement": "GI50", "setting": "OVCAR-3", "value": "1540 nM (inactive)"}, {"measurement": "GI50", "setting": "OVCAR-4", "value": "1380 nM (inactive)"}, {"measurement": "GI50", "setting": "OVCAR-5", "value": "2500 nM (inactive)"}, {"measurement": "GI50", "setting": "PC-3", "value": "1360 nM (inactive)"}, {"measurement": "GI50", "setting": "RPMI-8226", "value": "2150 nM (inactive)"}, {"measurement": "GI50", "setting": "RXF 393", "value": "1870 nM (inactive)"}, {"measurement": "GI50", "setting": "SF-268", "value": "2040 nM (inactive)"}, {"measurement": "GI50", "setting": "SF-295", "value": "17300 nM (inactive)"}, {"measurement": "GI50", "setting": "SF-539", "value": "2210 nM (inactive)"}, {"measurement": "GI50", "setting": "SK-MEL-28", "value": "20600 nM (inactive)"}, {"measurement": "GI50", "setting": "SK-MEL-2", "value": "2360 nM (inactive)"}, {"measurement": "GI50", "setting": "SK-MEL-5", "value": "1800 nM (inactive)"}, {"measurement": "GI50", "setting": "SK-OV-3", "value": "13800 nM (inactive)"}, {"measurement": "GI50", "setting": "SN12C", "value": "1760 nM (inactive)"}, {"measurement": "GI50", "setting": "SNB-19", "value": "2020 nM (inactive)"}, {"measurement": "GI50", "setting": "SR", "value": "3440 nM (inactive)"}, {"measurement": "GI50", "setting": "SW-620", "value": "2880 nM (inactive)"}, {"measurement": "GI50", "setting": "T47D", "value": "1760 nM (inactive)"}, {"measurement": "GI50", "setting": "TK-10", "value": "12400 nM (inactive)"}, {"measurement": "GI50", "setting": "U-251", "value": "2040 nM (inactive)"}, {"measurement": "GI50", "setting": "UACC-257", "value": "5070 nM (inactive)"}, {"measurement": "GI50", "setting": "UACC-62", "value": "2300 nM (inactive)"}]}
